Results as given in patent EP2633864A1, “Clip inhibitors and methods of modulating immune function” (The Regents of the University of Colorado, priority 2008, dated 2010).

Legend:
B cell surface CLIP = assay: Effect on B cell surface CLIP (Figure 4); type: cell-based
mouse splenic B cells = assay: TLR ligand induced ectopic CLIP on mouse splenic B cells in vitro (15G4 anti-CLIP/I-Ab versus B220); type: cell-based; settings: treatment in vitro; figure 12d
Text: Mouse splenocytes or T-depleted splenocytes were red cell depleted using Geys Solution, and cells were counted. For T-depleted B cell preparations, B cells were separated by discontinuous Percoll (Pharmacia LKB Biotechnology, Piscataway, NJ) gradients (13). Those cells layering at the 1.079/1.085 g/ml interface (1.079 < ρ ≤ 1.085) are designated throughout as resting B cells. Cells layering at the BSS/1.066 g/ml interface (ρ ≤ 1.066) are designated as activated. Viable cells from this latter interface were isolated using Lympholyte-M (Cedarlane Laboratories, Ltd., Hornby, Ontario, Canada). Cells from each layer were harvested, washed, and resuspended at 10^7 cells/ml in PBS containing 5% fetal calf serum.
Total splenocytes, from either B6.129, Ii-deficient, or H2M-deficient mice were cultured with LPS for 24, 48, 72, or 96 hours as indicated. Cells were harvested and stained by two-color fluorescence using 15G4-FITC anti-mouse CLIP/I-A^b versus anti-mouse B220 PE. […]
Freshly isolated splenocytes, single cell suspensions of lymph node cells, resting (or activated) B cells, or primed B cells were isolated from B6.129, Ii-deficient, or H2M-deficient mice and cultured in 24 well plates in complete RPMI medium, with or without the appropriate Toll ligand, at 10^6 cells/ml. […] Cells were stained by two-color fluorescence using 15G4-FITC anti-mouse CLIP/I-A^b versus anti-mouse B220 PE. […]

Structure (SMILES)	B cell surface CLIP (B cell surface CLIP)	exogenous CLIP expression on the activated mouse B cells (mouse splenic B cells)
OC[C@H]1OC(O)C[C@@H](O)[C@@H]1O (some centres unmarked) [2-Deoxyglucose, 2-deoxyglucose]	affects B cell surface CLIP	
CCOCc1nc2c(N)nc3ccccc3c2n1CC(C)(C)O [R848, imidazoquinoline resiquimod]		resulted in exogenous CLIP expression
